{
  "source": "patent EP1767091A2",
  "about": "“Biocidal compositions” (Clariant Produkte (Deutschland) GmbH, priority 2005, dated 2007)",
  "key": {"[1]": {"test": "Solubility of biocidal active substances in various solvents, by stepwise concentration of a 10 wt% starting solution at 25°C", "assay_type": "physicochemical", "experimental": "Die nachfolgenden Beispiele dienen der näheren Erläuterung der Erfindung. Alle Prozentangaben sind Gewichtsprozente, sofern nicht anders angegeben. Tabelle 1: Löslichkeiten von bioziden Wirksubstanzen in verschiedenen Lösemitteln\nDie Löslichkeiten wurden durch schrittweises Aufkonzentrieren einer Startlösung bei 10 Gew.-% bei 25°C ermittelt. Tabelle 2: Lagerstabilität von bioziden Wirksubstanzen in verschiedenen Lösemitteln bei -5°C, +20°C und +50°C bei 14 Tagen Lagerdauer"}, "[2]": {"details": "in Tierversuchen; cited from earlier work"}, "[3]": {"details": "solvent N-Methylpyrrolidon (NMP), weight percent"}, "[4]": {"details": "solvent Dipropylenglykol (DPG), weight percent"}, "[5]": {"details": "solvent Tetraethylenglykoldimethylether (TEGDME), weight percent"}, "[6]": {"details": "solvent TEGDME / DPG 1:2,7, weight percent"}},
  "data": [
    {"compound": "O=[N+]([O-])C(Br)(CO)CO", "note": "[1 (V), 2-Bromo-2-nitro-1,3-propandiol]", "values": [
      {"measurement": "Löslichkeit [25°C]", "setting": "[1]; [3]", "value": 51, "unit": "%"}
    ]},
    {"compound": "O=[N+]([O-])C(Br)(CO)CO", "note": "[4(V), 2-Bromo-2-nitro-1,3-propandiol]", "values": [
      {"measurement": "Löslichkeit [25°C]", "setting": "[1]; [4]", "value": 26, "unit": "%"}
    ]},
    {"compound": "CCCCNC(=O)OCC#CI", "note": "[5(V), 3-Jod-2-propinyl-butylcarbamat]", "values": [
      {"measurement": "Löslichkeit [25°C]", "setting": "[1]; [3]", "value": 45, "unit": "%"}
    ]},
    {"compound": "CCCCNC(=O)OCC#CI", "note": "[8(V), 3-Jod-2-propinyl-butylcarbamat]", "values": [
      {"measurement": "Löslichkeit [25°C]", "setting": "[1]; [4]", "value": 34, "unit": "%"}
    ]},
    {"compound": "N#CCCC(Br)(C#N)CBr", "note": "(stereo not shown) [13(V), 1,2-Dibromo-2,4-dicyanobutan]", "values": [
      {"measurement": "Löslichkeit [25°C]", "setting": "[1]; [3]", "value": 39, "unit": "%"}
    ]},
    {"compound": "N#CCCC(Br)(C#N)CBr", "note": "(stereo not shown) [16(V), 1,2-Dibromo-2,4-dicyanobutan]", "values": [
      {"measurement": "Löslichkeit [25°C]", "setting": "[1]; [4]", "value": 21, "unit": "%"}
    ]},
    {"compound": "O=[N+]([O-])C(Br)(CO)CO", "note": "[Beispiel 2, 2-Bromo-2-nitro-1,3-propandiol]", "values": [
      {"measurement": "Löslichkeit [25°C]", "setting": "[1]; [5]", "value": 56, "unit": "%"}
    ]},
    {"compound": "O=[N+]([O-])C(Br)(CO)CO", "note": "[Beispiel 3, 2-Bromo-2-nitro-1,3-propandiol]", "values": [
      {"measurement": "Löslichkeit [25°C]", "setting": "[1]; [6]", "value": 39, "unit": "%"}
    ]},
    {"compound": "CCCCNC(=O)OCC#CI", "note": "[Beispiel 6, 3-Jod-2-propinyl-butylcarbamat]", "values": [
      {"measurement": "Löslichkeit [25°C]", "setting": "[1]; [5]", "value": 52, "unit": "%"}
    ]},
    {"compound": "CCCCNC(=O)OCC#CI", "note": "[Beispiel 7, 3-Jod-2-propinyl-butylcarbamat]", "values": [
      {"measurement": "Löslichkeit [25°C]", "setting": "[1]; [6]", "value": 50, "unit": "%"}
    ]},
    {"compound": "N#CCCC(Br)(C#N)CBr", "note": "(stereo not shown) [Beispiel 14, 1,2-Dibromo-2,4-dicyanobutan]", "values": [
      {"measurement": "Löslichkeit [25°C]", "setting": "[1]; [5]", "value": 47, "unit": "%"}
    ]},
    {"compound": "N#CCCC(Br)(C#N)CBr", "note": "(stereo not shown) [Beispiel 15, 1,2-Dibromo-2,4-dicyanobutan]", "values": [
      {"measurement": "Löslichkeit [25°C]", "setting": "[1]; [6]", "value": 34, "unit": "%"}
    ]},
    {"compound": "CN1CCCC1=O", "note": "[N-Methyl-2-Pyrrolidon]", "values": [
      {"measurement": "fruchtschädigende Wirkung", "setting": "[2]", "value": "fruchtschädigende Wirkung"}
    ]}
  ]
}
